Values belong to the compound of their own block, whether it stands above or below them.
Assay: photoluminescence quantum yield (fraction); solvent given as SMILES

Compound: COC(=O)C1=C(C(=O)OC)C2(c3ccccc3-c3ccccc32)[C@@H](c2ccccc2)C=C2c3cc(OC)c(OC)cc3CCN21
photoluminescence quantum yield (in ClCCl): 0.00354

Compound: COCCC1=Cc2nc1ccc1[nH]c(cc1CCOC)c1nc(ccc3[nH]c2cc3CCOC)C(CCOC)=C1
photoluminescence quantum yield (in Cc1ccccc1): 0.47

Compound: CN(C)c1ccc2c(c1)C(C)(C)C(=O)C=C2
photoluminescence quantum yield (in O): 0.13

Compound: CCOC(=O)c1sc(SC)c2c(=O)[nH]nnc12
photoluminescence quantum yield (in C1CCOC1): 0.0075 | photoluminescence quantum yield (in CC#N): 0.018 | photoluminescence quantum yield (in CCO): 0.023 | photoluminescence quantum yield (in CN(C)C=O): 0.0037 | photoluminescence quantum yield (in CO): 0.029 | photoluminescence quantum yield (in CS(C)=O): 0.0054

Compound: COc1ccc(-c2cc3c(s2)-c2sc(-c4ccc(OC)cc4)cc2P(c2ccccc2)(c2ccccc2)=[O+][B-]3(c2c(C)cc(C)cc2C)c2c(C)cc(C)cc2C)cc1
photoluminescence quantum yield (in C1CCOC1): 0.52

Compound: O=Cc1ccc(-c2ccc(O)c(-c3nc4ccccc4s3)c2)o1
photoluminescence quantum yield (in CCO): 0.0246 | photoluminescence quantum yield (in ClCCl): 0.0632 | photoluminescence quantum yield (in O): 0.02

Compound: N#Cc1cc(/C=C/c2ccc(/C=C/c3ccc(N(c4ccccc4)c4ccccc4)cc3)c(C#N)c2)ccc1/C=C/c1ccc(N(c2ccccc2)c2ccccc2)cc1
photoluminescence quantum yield (in ClCCl): 0.32

Compound: CCCCCCN1C(=O)c2cccc3c(-c4ccc(-c5cc(-c6ccccc6)nn5-c5ccccc5)s4)ccc(c23)C1=O
photoluminescence quantum yield (in ClCCl): 0.16

Compound: Oc1cccc(-c2nc(-c3ccccc3)c(-c3ccccc3)[nH]2)c1
photoluminescence quantum yield (in CO): 0.24

Compound: CC1(C)c2ccccc2N(c2ccc(S(=O)(=O)c3ccc(N4c5ccccc5C(C)(C)c5ccccc54)cc3)cc2)c2ccccc21
photoluminescence quantum yield (in C1COCCO1): 0.8 | photoluminescence quantum yield (in CC(C)=O): 0.59 | photoluminescence quantum yield (in Cc1ccccc1): 0.8 | photoluminescence quantum yield (in ClC(Cl)Cl): 0.8 | photoluminescence quantum yield (in c1cc(-n2c3ccccc3c3ccccc32)cc(-n2c3ccccc3c3ccccc32)c1): 0.8

Compound: CC[n+]1nc2cc3c4c(c2c2ccccc21)CCCN4CCC3
photoluminescence quantum yield (in O): 0.25

Compound: Cc1ccc(-n2c3ccccc3c3cc(C(=C(C#N)C#N)c4ccccc4)ccc32)cc1
photoluminescence quantum yield (in C1CCOC1): 0.12 | photoluminescence quantum yield (in CC#N): 0.07 | photoluminescence quantum yield (in CC(C)=O): 0.05 | photoluminescence quantum yield (in CCOC(C)=O): 0.09 | photoluminescence quantum yield (in CO): 0.01 | photoluminescence quantum yield (in CS(C)=O): 0.02 | photoluminescence quantum yield (in Cc1ccccc1): 0.14 | photoluminescence quantum yield (in ClC(Cl)Cl): 0.13

Compound: CCC1=C(C)C(=O)n2c1cc1c(C)c(CC(=O)O)c(C)n1c2=O
photoluminescence quantum yield (in CO): 0.91 | photoluminescence quantum yield (in CS(C)=O): 1 | photoluminescence quantum yield (in ClC(Cl)Cl): 0.96 | photoluminescence quantum yield (in c1ccccc1): 0.88

Compound: CN(C)c1ccc(C2=Cc3ccc4ccccc4[n+]3[B-](F)(F)O2)cc1
photoluminescence quantum yield (in C1CCOC1): 0.517 | photoluminescence quantum yield (in C1COCCO1): 0.735 | photoluminescence quantum yield (in CC1CCCCC1): 0.862 | photoluminescence quantum yield (in CC#N): 0.296 | photoluminescence quantum yield (in CCOC(C)=O): 0.614 | photoluminescence quantum yield (in CCOCC): 0.747 | photoluminescence quantum yield (in CN(C)C=O): 0.187 | photoluminescence quantum yield (in CO): 0.308 | photoluminescence quantum yield (in COC(C)=O): 0.374 | photoluminescence quantum yield (in ClC(Cl)Cl): 0.86

Compound: CCCCN1/C(=C\c2c(-c3ccc(N(C)C)cc3)c(=O)c2=O)C=Cc2ccccc21
photoluminescence quantum yield (in C1CCCCC1): 0.0242 | photoluminescence quantum yield (in Cc1ccccc1): 0.0163 | photoluminescence quantum yield (in ClCCl): 0.001

Compound: CC[N+]1(CC)CN2C(=N1)C(C(=O)O)=Cc1ccc(C)cc12
photoluminescence quantum yield (in O): 0.617

Compound: Cn1cccc1-c1cc(C#N)ccc1C#N
photoluminescence quantum yield (in C1CCOC1): 0.139 | photoluminescence quantum yield (in CC#N): 0.024 | photoluminescence quantum yield (in CCCCCC): 0.378 | photoluminescence quantum yield (in CCCCOCCCC): 0.281 | photoluminescence quantum yield (in CCOCC): 0.206

Compound: Cc1cccc(-c2cnc3ccc4ccccc4n23)c1
photoluminescence quantum yield (in ClCCl): 0.55

Compound: COc1ccc2c(c1)c1c(c3cc(OC)ccc32)=[N+]2C(=C(c3c(C)cc(C)cc3C)c3cc4c5cc(OC)ccc5c5ccc(OC)cc5c4n3[B-]2(F)F)C=1
photoluminescence quantum yield (in C1CCCCC1): 0.08 | photoluminescence quantum yield (in C1CCOC1): 0.001 | photoluminescence quantum yield (in CC#N): 0.01 | photoluminescence quantum yield (in Cc1ccccc1): 0.001 | photoluminescence quantum yield (in ClCCl): 0.001

Compound: CN(C)c1ccc(/C=C/C=C/c2ccc(C#N)cc2)cc1
photoluminescence quantum yield (in C1CCOC1): 0.098 | photoluminescence quantum yield (in CC#N): 0.223 | photoluminescence quantum yield (in CCCC#N): 0.125 | photoluminescence quantum yield (in CCCCCC): 0.059 | photoluminescence quantum yield (in CCCCOCCCC): 0.068 | photoluminescence quantum yield (in CCO): 0.187 | photoluminescence quantum yield (in CCOCC): 0.085

Compound: C#Cc1ccc(/C2=c3\cc/c([nH]3)=C(\c3ccc(C#C)cc3)C3=N/C(=C(/c4cc(C(C)(C)C)cc(C(C)(C)C)c4)c4cc(c[nH]4)/C(c4cc(C(C)(C)C)cc(C(C)(C)C)c4)=C4/C=CC2=N4)C=C3)cc1
photoluminescence quantum yield (in CC(=O)N(C)C): 0.0578

Results, then the compound that gave them:

photoluminescence quantum yield (in CO): 0.69
Compound: CCN(C)c1ccc(C2=C3C(C)=CC(/C=C/c4ccc(OCCCN=[N+]=[N-])cc4)=[N+]3[B-](F)(F)n3c(C)cc(C)c32)cc1

photoluminescence quantum yield (in ClCCl): 0.45
Compound: CC1=C(c2ccccc2)Oc2cc3nc4ccccc4nc3c3cccc1c23

photoluminescence quantum yield (in ClC(Cl)Cl): 0.28
Compound: O=C1[C@@H]2[C@H](C(=O)N1c1cccc3cc4ccccc4cc13)[C@H]1C[C@@H]2c2c1c(-c1ccccc1)c1ccccc1c2-c1ccccc1

photoluminescence quantum yield (in ClCCl): 0.04
Compound: COc1ccc(C#Cc2ncc(-c3ccccc3)o2)cc1OC

photoluminescence quantum yield (in ClCCl): 0.55
Compound: COc1ccc(C#Cc2c(C#Cc3ccc(OC)cc3)c(C#Cc3ccc(OC)cc3)c(C#Cc3ccc(OC)cc3)c(C#Cc3ccc(OC)cc3)c2C#Cc2ccc(OC)cc2)cc1

photoluminescence quantum yield (in CC#N): 0.85 | photoluminescence quantum yield (in CCO): 0.86 | photoluminescence quantum yield (in O): 0.79
Compound: CC1=CC2=Nc3nc(C)[n+](C)cc3CN2C=C1

photoluminescence quantum yield (in ClC(Cl)Cl): 0.11
Compound: COc1ccc2c(c1)CCc1c(-c3ccccc3)c3n(c1-2)[B-](F)(F)[N+]1=c2ccc4ccccc4c2=C(c2ccccc2)C1=N3

photoluminescence quantum yield (in CCO): 0.52 | photoluminescence quantum yield (in ClC(Cl)Cl): 0.2
Compound: CCOc1ccc2c(-c3nc(-c4cccc(Br)c4)no3)cc(=O)oc2c1

photoluminescence quantum yield (in C1CCCCC1): 0.31 | photoluminescence quantum yield (in CCOC(C)=O): 0.195 | photoluminescence quantum yield (in CN(C)C=O): 0.013 | photoluminescence quantum yield (in CO): 0.002 | photoluminescence quantum yield (in ClCCl): 0.24
Compound: CCN(CC)c1ccc2c(c1)oc(=O)c1cc3c(-c4ccccc4)nn(-c4ccccc4)c3nc12

photoluminescence quantum yield (in ClCCl): 0.16
Compound: CC(C)(C)c1ccc(-c2c3c(c(-c4ccccc4)c4cc5ccccc5cc24)Cc2c(c(-c4ccccc4)c4cc5ccccc5cc4c2-c2ccc(C(C)(C)C)cc2)C3)cc1

photoluminescence quantum yield (in ClC(Cl)Cl): 0.015
Compound: O[Si](c1c2ccccc2cc2ccccc12)(c1c2ccccc2cc2ccccc12)c1c2ccccc2cc2ccccc12

photoluminescence quantum yield (in CCCCCC): 0.28
Compound: CC(C)(C)c1cc2cc(N(c3ccccc3)c3ccccc3)c3cc(C(C)(C)C)cc4cc(N(c5ccccc5)c5ccccc5)c(c1)c2c43

photoluminescence quantum yield (in ClC(Cl)Cl): 0.9
Compound: CCCCCCCCCCCCOc1ccc(C2=C3C(=O)N(CC(OCC)OCC)C(c4ccc(OCCCCCCCCCCCC)c(OCCCCCCCCCCCC)c4)=C3C(=O)N2CC(OCC)OCC)cc1OCCCCCCCCCCCC

photoluminescence quantum yield (in ClCCl): 0.13
Compound: c1ccc(N(c2ccccc2)c2ccc(N(c3ccccc3)c3ccc4ccc5c(N(c6ccccc6)c6ccc(N(c7ccccc7)c7ccccc7)cc6)ccc6ccc3c4c65)cc2)cc1

photoluminescence quantum yield (in ClCCl): 0.3
Compound: CCCCN(CCCC)c1ccc(C#Cc2cc(C#Cc3ccc(N(CCCC)CCCC)cc3)c(C#Cc3c(F)c(F)c(F)c(F)c3F)cc2C#Cc2c(F)c(F)c(F)c(F)c2F)cc1

photoluminescence quantum yield (in ClCCl): 0.54
Compound: C(#Cc1cccc2nsnc12)c1ccc(-n2c3ccccc3c3ccccc32)cc1

photoluminescence quantum yield (in C1COCCO1): 0.358 | photoluminescence quantum yield (in CN(C)C=O): 0.018 | photoluminescence quantum yield (in CO): 0.006 | photoluminescence quantum yield (in CS(C)=O): 0.004
Compound: O=C1/C(=C2\Sc3ccc(S(=O)(=O)Nc4ccccc4)cc3C2=O)Sc2ccc(S(=O)(=O)Nc3ccccc3)cc21

photoluminescence quantum yield (in CC#N): 0.02
Compound: O=C(O)c1ccccc1-c1nc(-c2ccccc2)c2ccccn12

Source: the Deep4Chem optical property database
